Experimental data reported in US4605658A (priority 1983, dated 1986).
Values after ≈ are worked out from the molar mass of the structure shown. Read-outs that look alike come from different tables or passages of the source.

Experiments:
[1] = system: Vesicular stomatitis virus; type: cell-based; details: ratio of MCC (PRK cells) to MIC50 (vesicular stomatitis virus)
Parainfluenza-virus-3 = test: microbe, parasite or virus in culture; type: cell-based; details: Vero
[2] = Test 3: cytotoxicity, Vero cells; type: cell-based, green monkey; details: monkey, Table 4, read-out: Minimum cytotoxic concentration (MCC)
Protocol: (§1) A further test was effected to determine the cytotoxicity of the chemical compounds of Table 1. Cell cultures were incubated with varying concentrations of the esters, during a time period equal to the period required for measuring antiviral activity. The compounds (S)-DHPA and (RS)-DHPA were used for comparative purposes. For each compound, the minimum cytotoxic concentration (MCC) was measured, that is the concentration required to cause a microscopically detectable alteration of normal cell morphology, when incubated with the cells in this way.

Reo virus-1 = test: Test 2: antiviral activity, reo virus-1 in Vero cells; type: cell-based; details: Reo virus-1, Vero cells; Table 3
Sindbis virus = test: microbe, parasite or virus in culture; type: cell-based; details: Vero
Measles virus = test: microbe, parasite or virus in culture; type: cell-based; details: Measles morbillivirus, Vero
Coxsackie virus-B4 = test: Test 2: antiviral activity, Coxsackie virus-B4 in HeLa cells; type: cell-based; details: Table 3
[3] = Test 3: cytotoxicity, PRK cells; type: cell-based; details: rabbit, Table 4, read-out: Minimum cytotoxic concentration (MCC)
Protocol: as §1

[4] = Test 3: cytotoxicity, HeLa cells; type: cell-based; details: human, Table 4, read-out: Minimum cytotoxic concentration (MCC)
Protocol: as §1

DNA and RNA viruses [5] = details: known DHPA and related derivatives; cited from earlier work
Vesicular stomatitis = test: microbe, parasite or virus in culture; type: cell-based; details: PRK, read-out: MIC50
Parainfluenza = test: microbe, parasite or virus in culture; type: cell-based; details: Vero B; read-out: MIC50
Vaccinia = test: microbe, parasite or virus in culture; type: cell-based; details: Orthopoxvirus vaccinia, PRK, read-out: MIC50
Polio 1 = test: microbe, parasite or virus in culture; type: cell-based; details: HeLa, read-out: MIC50
Sindbis = test: Test 1: inhibition of virus cytopathic effect, Sindbis in Vero B cells; type: cell-based; details: Table 2, read-out: MIC50
Protocol: The antiviral properties of the esters prepared in Example 1 was explored in a variety of cell cultures and with a variety of DNA and RNA viruses such as listed in Table 2. The cells of each cell culture were inoculated with a certain virus in a dose of about 100 CCID50, that is about 100 times the dose needed to infect 50 percent of the cells. One hour after inoculation, the celss were washed with Eagle's nutrient medium and an ester of Example 1 was added in a dose varying from zero to 300 ug/ml and sometimes to more than 400 ug/ml. The compound (S)-DHPA was used in a comparative experiment. […] The cytopathic effect itself was measured in control experiments with virus-infected cell cultures without any added chemical compound and recorded as soon as it reached completion (Method of L. J. Rosenthal and I. L. Schechmaister in "Tissue Culture", p. 510, Academic Press, New York, 1973).
The results are shown in Table 2, wherein the abbreviations have the following meaning: PRK: primary culture of rabbit kidney cells; Vero: continuous line of green monkey kidney cells, HeLa: epithelial line of human cervical carcinoma cells.

Measles = test: microbe, parasite or virus in culture; type: cell-based; details: Measles morbillivirus, Vero; read-out: MIC50
Herpes simplex 1 (KOS) = test: Test 1: inhibition of virus cytopathic effect, herpes simplex 1 (KOS) in PRK cells; type: cell-based; details: Table 2, read-out: MIC50
Reovirus 1 = test: Test 1: inhibition of virus cytopathic effect, reovirus 1 in Vero B cells; type: cell-based; details: Mammalian orthoreovirus 1; Reovirus 1, Vero B cells; Table 2; read-out: MIC50
Solubility = type: physicochemical
DNA and RNA viruses [6] = test: Antiviral activity against DNA and RNA viruses (general statements); type: cell-based
living cells = details: known DHPA; cited from earlier work

Compound | antiviral index [1] | EC50 (Parainfluenza-virus-3) [µg/mL] | MCC [2] [µg/mL] | EC50 (Reo virus-1) [µg/mL] | EC50 (Sindbis virus) [µg/mL] | EC50 (Measles virus) [µg/mL] | EC50 (Coxsackie virus-B4) [µg/mL] | MCC [3] [µg/mL] | MCC [4] [µg/mL] | other results
CC(C)OC(=O)C(O)Cn1cnc2c(N)ncnc21 (racemic) [Compound 4] | higher than 100 -fold | 70 (≈ 264 µM) | > 400 | 40 (≈ 151 µM) | > 400 | 150 (≈ 565 µM) | > 400 | > 400 | > 400 | –
Nc1ncnc2c1ncn2CC(O)CO (racemic) [(RS)--DHPA, 9-(2,3-dihydroxypropyl)adenine, reference compound] | – | 20 (≈ 95.6 µM) | > 400 | 100 (≈ 478 µM) | > 400 | 20 (≈ 95.6 µM) | > 400 | > 400 | > 400 | antiviral activity (in words) (DNA and RNA viruses [5]): antivirally active
CC(C)CCOC(=O)C(O)Cn1cnc2c(N)ncnc21 (racemic) [Compound 8] | higher than 100 -fold | 200 (≈ 682 µM) | 400 | 30 (≈ 102 µM) | 200 (≈ 682 µM) | 12 (≈ 40.9 µM) | > 400 | 400 | 400 | –
COC(=O)C(O)Cn1cnc2c(N)ncnc21 (racemic) [Compound 1, methylester of 3-(adenin-9-yl)-2-hydroxypropanoic acid] | higher than 100 -fold | 20 (≈ 84.3 µM) | > 400 | 200 (≈ 843 µM) | > 400 | 40 (≈ 169 µM) | > 400 | > 400 | > 400 | EC50 (Vesicular stomatitis): 3 µg/mL (≈ 12.6 µM); EC50 (Parainfluenza): 100 µg/mL (≈ 422 µM); EC50 (Vaccinia): 7 µg/mL (≈ 29.5 µM); EC50 (Polio 1): > 400 µg/mL; EC50 (Sindbis): > 400 µg/mL; EC50 (Measles): 40 µg/mL (≈ 169 µM); EC50 (Herpes simplex 1 (KOS)): > 400 µg/mL; EC50 (Reovirus 1): 300 µg/mL (≈ 1260 µM)
CCCCOC(=O)C(O)Cn1cnc2c(N)ncnc21 (racemic) [Compound 5] | – | 70 (≈ 251 µM) | 200 | 150 (≈ 537 µM) | 150 (≈ 537 µM) | 25 (≈ 89.5 µM) | > 400 | 200 | 400 | –
COC(=O)[C@@H](O)Cn1cnc2c(N)ncnc21 [CH3 (S), methylester of 3-(adenin-9-yl)-2-hydroxypropanoic acid] | – | – | – | – | – | – | – | – | – | EC50 (Vesicular stomatitis): 7 µg/mL (≈ 29.5 µM); EC50 (Parainfluenza): 100 µg/mL (≈ 422 µM); EC50 (Vaccinia): 20 µg/mL (≈ 84.3 µM); EC50 (Polio 1): > 400 µg/mL; EC50 (Sindbis): > 400 µg/mL; EC50 (Measles): 70 µg/mL (≈ 295 µM); EC50 (Herpes simplex 1 (KOS)): > 400 µg/mL; EC50 (Reovirus 1): 300 µg/mL (≈ 1260 µM)
Nc1ncnc2c1ncn2CC(O)C(=O)OC1CCCCC1 (racemic) [Compound 11] | – | > 40 | 100 | 7 (≈ 22.9 µM) | > 100 | 15 (≈ 49.1 µM) | > 100 | 100 | 100 | –
Nc1ncnc2c1ncn2C[C@@H](O)CO [DHPA R-enantiomeric form, 9-(2,3-dihydroxypropyl)adenine] | – | – | – | – | – | – | – | – | – | antiviral activity (in words) (DNA and RNA viruses [5]): rather inactive
CCCOC(=O)C(O)Cn1cnc2c(N)ncnc21 (racemic) [Compound 3] | – | 100 (≈ 377 µM) | 400 | 200 (≈ 754 µM) | > 200 | 100 (≈ 377 µM) | > 400 | 100 | 400 | –
CCCCCCCCOC(=O)C(O)Cn1cnc2c(N)ncnc21 (racemic) [Compound 9] | – | 15 (≈ 44.7 µM) | 200 | 7 (≈ 20.9 µM) | 30 (≈ 89.4 µM) | 70 (≈ 209 µM) | > 100 | 100 | 100 | –
CCC(C)OC(=O)C(O)Cn1cnc2c(N)ncnc21 (racemic) [Compound 6] | higher than 100 -fold | 200 (≈ 716 µM) | > 400 | 70 (≈ 251 µM) | 300 (≈ 1070 µM) | 40 (≈ 143 µM) | > 400 | > 400 | > 400 | antiviral index ([1]; listed as 2-butyl): higher than 400 -fold
CCOC(=O)C(O)Cn1cnc2c(N)ncnc21 (racemic) [Compound 2] | higher than 100 -fold | 20 (≈ 79.6 µM) | > 400 | 40 (≈ 159 µM) | > 400 | 20 (≈ 79.6 µM) | > 400 | > 400 | > 400 | antiviral index ([1]; listed as racemic ethyl): higher than 400 -fold
Nc1ncnc2c1ncn2CC(O)C(=O)O (stereo not drawn) [3-(adenin-9-yl)-2-hydroxypropanoic acid] | – | – | – | – | – | – | – | – | – | solubility (in words) (Solubility): poorly soluble in water; antiviral activity (in words) (DNA and RNA viruses [6]): inactivity
CCOC(=O)[C@@H](O)Cn1cnc2c(N)ncnc21 [C2 H5 (S)] | – | – | – | – | – | – | – | – | – | EC50 (Vesicular stomatitis): 1.5 µg/mL (≈ 5.97 µM); EC50 (Parainfluenza): 100 µg/mL (≈ 398 µM); EC50 (Vaccinia): 7 µg/mL (≈ 27.9 µM); EC50 (Polio 1): > 400 µg/mL; EC50 (Sindbis): > 400 µg/mL; EC50 (Measles): 100 µg/mL (≈ 398 µM); EC50 (Herpes simplex 1 (KOS)): > 400 µg/mL; EC50 (Reovirus 1): 70 µg/mL (≈ 279 µM)
Nc1ncnc2c1ncn2CC(O)CO (stereo not drawn) [DHPA, 9-(2,3-dihydroxypropyl)adenine] | – | – | – | – | – | – | – | – | – | antiviral activity (in words) (DNA and RNA viruses [5]): broad-spectrum antiviral activity in (S) or (RS) form; acute toxicity for living cells (in words) (living cells): low acute toxicity for living cells
COCCOC(=O)C(O)Cn1cnc2c(N)ncnc21 (racemic) [Compound 10] | – | 300 (≈ 1070 µM) | > 400 | 70 (≈ 249 µM) | > 400 | 400 (≈ 1420 µM) | > 400 | > 400 | > 400 | –
Nc1ncnc2c1ncn2C[C@H](O)CO [(S)--DHPA, 9-(2,3-dihydroxypropyl)adenine, reference compound] | – | 20 (≈ 95.6 µM) | > 400 | 200 (≈ 956 µM) | > 400 | 30 (≈ 143 µM) | > 400 | > 400 | > 400 | EC50 (Vesicular stomatitis): 30 µg/mL (≈ 143 µM); EC50 (Vaccinia): 70 µg/mL (≈ 335 µM); antiviral activity (in words) (DNA and RNA viruses [5]): antivirally active; EC50 (Polio 1): > 400 µg/mL; EC50 (Sindbis): > 400 µg/mL; EC50 (Measles): 70 µg/mL (≈ 335 µM); EC50 (Herpes simplex 1 (KOS)): > 400 µg/mL; EC50 (Reovirus 1): 70 µg/mL (≈ 335 µM)
CC(C)COC(=O)C(O)Cn1cnc2c(N)ncnc21 (racemic) [Compound 7] | higher than 100 -fold | 20 (≈ 71.6 µM) | > 400 | 150 (≈ 537 µM) | > 400 | 40 (≈ 143 µM) | > 400 | > 400 | > 400 | antiviral index ([1]; listed as 2-methylpropyl): higher than 400 -fold
COC(=O)[C@H](O)Cn1cnc2c(N)ncnc21 [CH3 (R), methylester of 3-(adenin-9-yl)-2-hydroxypropanoic acid] | – | – | – | – | – | – | – | – | – | EC50 (Vesicular stomatitis): 1.5 µg/mL (≈ 6.32 µM); EC50 (Parainfluenza): 200 µg/mL (≈ 843 µM); EC50 (Vaccinia): 15 µg/mL (≈ 63.2 µM); EC50 (Polio 1): > 400 µg/mL; EC50 (Sindbis): > 400 µg/mL; EC50 (Measles): 15 µg/mL (≈ 63.2 µM); EC50 (Herpes simplex 1 (KOS)): > 400 µg/mL; EC50 (Reovirus 1): 70 µg/mL (≈ 295 µM)
